Assay results from ChEMBL document CHEMBL3217712, “Improved biodistribution, pharmacokinetics and photodynamic efficacy using a new photostable sulfonamide bacteriochlorin” (Medchemcomm, 2012).
The source made the active and inactive calls. No cut-off for these calls is given here.

Key:
[1] = Biodistribution in mouse Cloudman S91 tumor bearing DBA2 mouse skin at 10 mg/kg, ip after 24 hrs; format: ADME, organism-based, Zone of skin; set-up: dose 10 mg/kg, route intraperitoneal; conditions: read-out: Drug uptake
[2] = Biodistribution in mouse Cloudman S91 tumor bearing DBA2 mouse heart at 10 mg/kg, ip after 6 hrs; format: ADME, organism-based; set-up: dose 10 mg/kg, route intraperitoneal; conditions: read-out: Drug uptake
[3] = Biodistribution in mouse Cloudman S91 tumor bearing DBA2 mouse lungs at 10 mg/kg, ip after 72 hrs; format: ADME, organism-based; set-up: dose 10 mg/kg, route intraperitoneal; conditions: lung, read-out: Drug uptake
[4] = Biodistribution in mouse Cloudman S91 tumor bearing DBA2 mouse spleen at 10 mg/kg, ip after 6 hrs; format: ADME, organism-based; set-up: dose 10 mg/kg, route intraperitoneal; conditions: read-out: Drug uptake
[5] = Biodistribution in mouse Cloudman S91 tumor bearing DBA2 mouse liver at 10 mg/kg, ip after 6 hrs; format: ADME, organism-based; set-up: dose 10 mg/kg, route intraperitoneal; conditions: read-out: Drug uptake
[6] = Biodistribution in mouse Cloudman S91 tumor bearing DBA2 mouse liver at 10 mg/kg, ip after 48 hrs; format: ADME, organism-based; set-up: dose 10 mg/kg, route intraperitoneal; conditions: read-out: Drug uptake
S91 [7] = experiment: Photodynamic efficacy against mouse Cloudman S91 cells allografted in DBA2 mouse assessed as disappearance of tumor at 10 mg/kg, ip followed by irradiated with 96 J cm'-2 laser light for 20 mins measured after 80 days; format: functional, organism-based; set-up: dose 10 mg/kg
[8] = Biodistribution in mouse Cloudman S91 tumor bearing DBA2 mouse lungs at 10 mg/kg, ip after 48 hrs; format: ADME, organism-based; set-up: dose 10 mg/kg, route intraperitoneal; conditions: lung, read-out: Drug uptake
[9] = Biodistribution in mouse Cloudman S91 tumor bearing DBA2 mouse spleen at 10 mg/kg, ip after 12 hrs; format: ADME, organism-based; set-up: dose 10 mg/kg, route intraperitoneal; conditions: read-out: Drug uptake
S91 [10] = experiment: Photodynamic efficacy against mouse Cloudman S91 cells allografted in DBA2 mouse assessed as time of tumor growth delay at 10 mg/kg, ip followed by irradiated with 96 J cm'-2 laser light for 20 mins; format: functional; conditions: route intraperitoneal
[11] = Biodistribution in mouse Cloudman S91 tumor bearing DBA2 mouse spleen at 10 mg/kg, ip after 48 hrs; format: ADME, organism-based; set-up: dose 10 mg/kg, route intraperitoneal; conditions: read-out: Drug uptake
[12] = Biodistribution in mouse Cloudman S91 tumor bearing DBA2 mouse spleen at 10 mg/kg, ip after 24 hrs; format: ADME, organism-based; set-up: dose 10 mg/kg, route intraperitoneal; conditions: read-out: Drug uptake
[13] = Biodistribution in mouse Cloudman S91 tumor bearing DBA2 mouse muscle at 10 mg/kg, ip after 48 hrs; format: ADME, organism-based, Muscle tissue; set-up: dose 10 mg/kg, route intraperitoneal; conditions: read-out: Drug uptake
[14] = Biodistribution in mouse Cloudman S91 tumor bearing DBA2 mouse tumour at 10 mg/kg, ip after 72 hrs; format: ADME, organism-based, Neoplasm; set-up: dose 10 mg/kg, route intraperitoneal; conditions: read-out: Drug uptake
[15] = Biodistribution in mouse Cloudman S91 tumor bearing DBA2 mouse intestine at 10 mg/kg, ip after 6 hrs; format: ADME, organism-based; set-up: dose 10 mg/kg, route intraperitoneal; conditions: read-out: Drug uptake
[16] = Biodistribution in mouse Cloudman S91 tumor bearing DBA2 mouse kidneys at 10 mg/kg, ip after 24 hrs; format: ADME, organism-based; set-up: dose 10 mg/kg, route intraperitoneal; conditions: kidney, read-out: Drug uptake
[17] = Biodistribution in mouse Cloudman S91 tumor bearing DBA2 mouse muscle at 10 mg/kg, ip after 72 hrs; format: ADME, organism-based, Muscle tissue; set-up: dose 10 mg/kg, route intraperitoneal; conditions: read-out: Drug uptake
[18] = Biodistribution in mouse Cloudman S91 tumor bearing DBA2 mouse blood at 10 mg/kg, ip after 6 hrs; format: ADME, organism-based; set-up: dose 10 mg/kg, route intraperitoneal; conditions: read-out: Drug uptake
[19] = Biodistribution in mouse Cloudman S91 tumor bearing DBA2 mouse tumour at 10 mg/kg, ip after 48 hrs; format: ADME, organism-based, Neoplasm; set-up: dose 10 mg/kg, route intraperitoneal; conditions: read-out: Drug uptake
[20] = Biodistribution in mouse Cloudman S91 tumor bearing DBA2 mouse intestine at 10 mg/kg, ip after 24 hrs; format: ADME, organism-based; set-up: dose 10 mg/kg, route intraperitoneal; conditions: read-out: Drug uptake
[21] = Biodistribution in mouse Cloudman S91 tumor bearing DBA2 mouse tumour at 10 mg/kg, ip after 6 hrs; format: ADME, organism-based, Neoplasm; set-up: dose 10 mg/kg, route intraperitoneal; conditions: read-out: Drug uptake
[22] = Biodistribution in mouse Cloudman S91 tumor bearing DBA2 mouse muscle at 10 mg/kg, ip after 12 hrs; format: ADME, organism-based, Muscle tissue; set-up: dose 10 mg/kg, route intraperitoneal; conditions: read-out: Drug uptake
[23] = Biodistribution in mouse Cloudman S91 tumor bearing DBA2 mouse kidneys at 10 mg/kg, ip after 12 hrs; format: ADME, organism-based; set-up: dose 10 mg/kg, route intraperitoneal; conditions: kidney, read-out: Drug uptake
[24] = Biodistribution in mouse Cloudman S91 tumor bearing DBA2 mouse blood at 10 mg/kg, ip after 12 hrs; format: ADME, organism-based; set-up: dose 10 mg/kg, route intraperitoneal; conditions: read-out: Drug uptake
[25] = n-Octanol-water partition coefficient, log P of the compound; format: physicochemical
[26] = Biodistribution in mouse Cloudman S91 tumor bearing DBA2 mouse intestine at 10 mg/kg, ip after 48 hrs; format: ADME, organism-based; set-up: dose 10 mg/kg, route intraperitoneal; conditions: read-out: Drug uptake
[27] = Biodistribution in mouse Cloudman S91 tumor bearing DBA2 mouse kidneys at 10 mg/kg, ip after 6 hrs; format: ADME, organism-based; set-up: dose 10 mg/kg, route intraperitoneal; conditions: kidney, read-out: Drug uptake
Mus musculus = experiment: Toxicity in mouse Cloudman S91 cells allografted DBA2 mouse assessed as skin damage with oedema and large scab formation at 10 mg/kg, ip followed by irradiated with 96 J cm'-2 laser light for 20 mins measured after 24 hrs; format: organism-based; set-up: dose 10 mg/kg, route intraperitoneal; conditions: in vivo
[28] = Biodistribution in mouse Cloudman S91 tumor bearing DBA2 mouse muscle at 10 mg/kg, ip after 2 hrs; format: ADME, organism-based, Muscle tissue; set-up: dose 10 mg/kg, route intraperitoneal; conditions: read-out: Drug uptake
[29] = Biodistribution in mouse Cloudman S91 tumor bearing DBA2 mouse spleen at 10 mg/kg, ip after 72 hrs; format: ADME, organism-based; set-up: dose 10 mg/kg, route intraperitoneal; conditions: read-out: Drug uptake
[30] = Biodistribution in mouse Cloudman S91 tumor bearing DBA2 mouse tumour at 10 mg/kg, ip after 2 hrs; format: ADME, organism-based, Neoplasm; set-up: dose 10 mg/kg, route intraperitoneal; conditions: read-out: Drug uptake
S91 [31] = experiment: Photodynamic efficacy against mouse Cloudman S91 cells allografted in DBA2 mouse assessed as hyperaemia, oedema and progressive darkening of tumor at 10 mg/kg, ip followed by irradiated with 96 J cm'-2 laser light for 20 mins; format: functional, organism-based; set-up: dose 10 mg/kg
[32] = Biodistribution in mouse Cloudman S91 tumor bearing DBA2 mouse kidneys at 10 mg/kg, ip after 48 hrs; format: ADME, organism-based; set-up: dose 10 mg/kg, route intraperitoneal; conditions: kidney, read-out: Drug uptake
S91 [33] = experiment: Photodynamic efficacy against mouse Cloudman S91 cells allografted in DBA2 mouse assessed as necrotic scab formation in tumor at 10 mg/kg, ip followed by irradiated with 96 J cm'-2 laser light for 20 mins measured after 12 hrs; format: functional, organism-based; set-up: dose 10 mg/kg
[34] = Biodistribution in mouse Cloudman S91 tumor bearing DBA2 mouse skin at 10 mg/kg, ip after 72 hrs; format: ADME, organism-based, Zone of skin; set-up: dose 10 mg/kg, route intraperitoneal; conditions: read-out: Drug uptake
[35] = Biodistribution in mouse Cloudman S91 tumor bearing DBA2 mouse muscle at 10 mg/kg, ip after 6 hrs; format: ADME, organism-based, Muscle tissue; set-up: dose 10 mg/kg, route intraperitoneal; conditions: read-out: Drug uptake
[36] = Biodistribution in mouse Cloudman S91 tumor bearing DBA2 mouse lungs at 10 mg/kg, ip after 6 hrs; format: ADME, organism-based; set-up: dose 10 mg/kg, route intraperitoneal; conditions: lung, read-out: Drug uptake

Structure (SMILES): CCNS(=O)(=O)c1ccc(Cl)c(-c2c3nc(c(-c4c(Cl)ccc(S(=O)(=O)NCC)c4Cl)c4ccc([nH]4)c(-c4c(Cl)ccc(S(=O)(=O)NCC)c4Cl)c4nc(c(-c5c(Cl)ccc(S(=O)(=O)NCC)c5Cl)c5ccc2[nH]5)CC4)CC3)c1Cl
- concentration at 24 h [1]: 170 ng/g
- concentration at 6 h [2]: 100 ng/g
- concentration at 72 h [3]: 300 ng/g
- concentration at 6 h [4]: 7000 ng/g
- concentration at 6 h [5]: 4800 ng/g
- concentration at 48 h [6]: 2400 ng/g
- Activity (S91 [7]): inactive
- concentration at 48 h [8]: 500 ng/g
- concentration at 12 h [9]: 6100 ng/g
- Time (S91 [10]): 44 days
- concentration at 48 h [11]: 7300 ng/g
- concentration at 24 h [12]: 10000 ng/g
- concentration at 48 h [13]: 70 ng/g
- concentration at 72 h [14]: 150 ng/g
- concentration at 6 h [15]: 1800 ng/g
- concentration at 24 h [16]: 500 ng/g
- concentration at 72 h [17]: 15 ng/g
- concentration at 6 h [18]: 240 ng/g
- concentration at 48 h [19]: 320 ng/g
- concentration at 24 h [20]: 750 ng/g
- concentration at 6 h [21]: 160 ng/g
- concentration at 12 h [22]: 120 ng/g
- concentration at 12 h [23]: 300 ng/g
- concentration at 12 h [24]: 970 ng/g
- logP [25]: 1.83
- concentration at 48 h [26]: 900 ng/g
- concentration at 6 h [27]: 400 ng/g
- Activity (Mus musculus): Toxic
- concentration at 2 h [28]: 30 ng/g
- concentration at 72 h [29]: 3000 ng/g
- concentration at 2 h [30]: 40 ng/g
- Activity (S91 [31]): Active
- concentration at 48 h [32]: 400 ng/g
- Activity (S91 [33]): Active
- concentration at 72 h [34]: 19 ng/g
- concentration at 6 h [35]: 50 ng/g
- concentration at 6 h [36]: 300 ng/g
